pIC50: −log10 of the molar value. In brackets after ≈: the same amount, converted by molar mass. Like-named read-outs stand apart in the source and are kept apart here.
Experiments:
[1] = tested on: S. aureus ATCC13709; assay: In vitro antibacterial activity (MIC assay), broth microdilution; assay type: cell-based
Procedure, shortened: (§1)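 Bacteria at roughly 5×10^5 CFU/mL final were grown 16–24 h at 35° C in wells holding 2-fold serial dilutions (11 points) of compound prepared in 100% DMSO, following NCCLS M7-A5. MIC, in μg/mL, is the concentration that stops visible growth relative to untreated wells.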

[2] = tested on: E. coli KL-16 (GSC strain 4245); assay: as above; assay type: cell-based; conditions: Escherichia coli
Procedure, shortened: as §1

[3] = tested on: S. pneumoniae ATCC49619; assay: as above; assay type: cell-based; conditions: Streptococcus pneumoniae, ATCC49619; read-out: S. pneumoniae ATCC49619 MIC
Procedure, shortened: as §1

[4] = biological target: T1, E. coli topoisomerase IV (Escherichia coli, UniProt P0AFI2+P20083); assay: Topoisomerase IV inhibition assay (relaxation); assay type: biochemical; conditions: for IC50: E. coli topoisomerase IV relaxation, visual inspection of gels, read-out: Topoisomerase IV IC50 (converted)
T1 construct: purchased John Innes Enterprises Ltd. (John Innes Centre, UK)
Protocol: Inhibition of the relaxation activity of E. coli topoisomerase IV was determined using enzyme, buffers and substrates received from John Innes Enterprises Ltd. (John Innes Centre, UK). The reactions were performed according to the manufacturer's directions, with the following modifications.
DNA relaxation reactions were carried out in a total reaction volume of 20 μL, containing 300 ng of supercoiled pBR322, 40 mM HEPES-KOH (pH 7.6), 100 mM potassium glutamate, 10 mM Mg(OAc)2, 10 mM DTT, 4 μg/mL tRNA, 2 mM ATP, and 50 μg/mL BSA. Compounds, diluted in 10% DMSO, were added to the reaction mixture to reach a final concentration of 0.5% DMSO. Enzyme was diluted to 0.45 unit/μL in a solution of 40 mM HEPES-KOH (pH 7.6), 150 mM potassium glutamate, 1 mM DTT, 1 mM EDTA, and 40% glycerol. Diluted enzyme (0.9 unit) was added to each reaction.
The reactions were incubated at 37° C. for 45 min. The reactions were then cooled to 0° C. followed by addition of 3 μL of 40% glycerol, 100 mM Tris-HCl (pH 7.5), 50 mM EDTA, 0.5% SDS and 0.1% bromophenol blue. Samples were separated on 1.0% agarose gels. Gels were stained with Ethidium bromide and photographed with a Stratagene Eagle Eye II.

[5] = biological target: T2, E. coli DNA gyrase (Escherichia coli, UniProt P0AES4+P0AES6); assay: DNA gyrase inhibition assay (supercoiling); assay type: biochemical; conditions: for IC50: E. coli DNA gyrase supercoiling, visual inspection of gels, read-out: DNA Gyrase IC50 (converted)
T2 construct: purchased John Innes Enterprises Ltd. (John Innes Centre, UK)
Procedure, shortened: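 Agarose-gel (1.0%, ethidium-stained) readout of supercoiled versus relaxed pBR322 after 30 min at 37° C. Each reaction held 250 ng DNA, 0.2 unit enzyme, 1 mM ATP, 4 mM MgCl2, 24 mM KCl in 35 mM Tris-HCl pH 7.5, and compound at 0.5% DMSO final.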

[6] = Staphylococcus aureus, ATCC13709; read-out: S. aureus ATCC13709 MIC

T1 sequence (P0AFI2 whole entry): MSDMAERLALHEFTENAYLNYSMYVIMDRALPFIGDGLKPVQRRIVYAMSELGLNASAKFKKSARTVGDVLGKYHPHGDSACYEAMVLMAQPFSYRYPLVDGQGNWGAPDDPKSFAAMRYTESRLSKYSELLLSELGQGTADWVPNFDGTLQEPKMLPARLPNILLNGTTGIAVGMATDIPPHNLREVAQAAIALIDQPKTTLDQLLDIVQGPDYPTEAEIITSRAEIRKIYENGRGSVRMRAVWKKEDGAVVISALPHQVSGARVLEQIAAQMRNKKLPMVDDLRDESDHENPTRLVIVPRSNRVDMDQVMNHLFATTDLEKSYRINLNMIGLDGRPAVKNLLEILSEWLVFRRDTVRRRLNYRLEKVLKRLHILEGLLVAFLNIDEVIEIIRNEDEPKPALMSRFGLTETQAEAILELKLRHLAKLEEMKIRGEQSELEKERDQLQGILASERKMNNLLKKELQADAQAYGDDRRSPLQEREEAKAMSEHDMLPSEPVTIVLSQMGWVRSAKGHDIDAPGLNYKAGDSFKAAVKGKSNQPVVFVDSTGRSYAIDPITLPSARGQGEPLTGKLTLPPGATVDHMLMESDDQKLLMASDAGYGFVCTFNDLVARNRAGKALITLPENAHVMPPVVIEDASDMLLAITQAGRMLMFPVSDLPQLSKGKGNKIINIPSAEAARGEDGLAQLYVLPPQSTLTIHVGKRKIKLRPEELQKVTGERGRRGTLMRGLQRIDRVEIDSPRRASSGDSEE
T1 sequence (P20083 whole entry): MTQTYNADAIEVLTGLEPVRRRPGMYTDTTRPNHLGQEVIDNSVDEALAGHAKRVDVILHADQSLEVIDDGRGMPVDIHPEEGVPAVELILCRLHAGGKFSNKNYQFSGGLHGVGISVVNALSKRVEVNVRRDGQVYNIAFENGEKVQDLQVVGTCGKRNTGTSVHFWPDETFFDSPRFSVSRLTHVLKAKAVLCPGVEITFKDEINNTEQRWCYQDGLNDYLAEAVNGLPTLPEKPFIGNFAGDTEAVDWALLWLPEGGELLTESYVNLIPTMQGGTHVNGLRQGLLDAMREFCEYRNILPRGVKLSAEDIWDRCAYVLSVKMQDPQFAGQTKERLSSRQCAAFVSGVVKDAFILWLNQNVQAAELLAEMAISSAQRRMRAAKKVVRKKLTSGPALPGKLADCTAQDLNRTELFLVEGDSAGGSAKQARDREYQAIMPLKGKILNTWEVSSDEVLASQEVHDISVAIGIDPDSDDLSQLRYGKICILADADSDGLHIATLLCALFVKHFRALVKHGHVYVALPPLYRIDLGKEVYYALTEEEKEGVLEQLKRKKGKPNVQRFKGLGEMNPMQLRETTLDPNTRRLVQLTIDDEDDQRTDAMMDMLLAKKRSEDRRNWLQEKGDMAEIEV
T2 sequence (P0AES4 whole entry, one chain of several): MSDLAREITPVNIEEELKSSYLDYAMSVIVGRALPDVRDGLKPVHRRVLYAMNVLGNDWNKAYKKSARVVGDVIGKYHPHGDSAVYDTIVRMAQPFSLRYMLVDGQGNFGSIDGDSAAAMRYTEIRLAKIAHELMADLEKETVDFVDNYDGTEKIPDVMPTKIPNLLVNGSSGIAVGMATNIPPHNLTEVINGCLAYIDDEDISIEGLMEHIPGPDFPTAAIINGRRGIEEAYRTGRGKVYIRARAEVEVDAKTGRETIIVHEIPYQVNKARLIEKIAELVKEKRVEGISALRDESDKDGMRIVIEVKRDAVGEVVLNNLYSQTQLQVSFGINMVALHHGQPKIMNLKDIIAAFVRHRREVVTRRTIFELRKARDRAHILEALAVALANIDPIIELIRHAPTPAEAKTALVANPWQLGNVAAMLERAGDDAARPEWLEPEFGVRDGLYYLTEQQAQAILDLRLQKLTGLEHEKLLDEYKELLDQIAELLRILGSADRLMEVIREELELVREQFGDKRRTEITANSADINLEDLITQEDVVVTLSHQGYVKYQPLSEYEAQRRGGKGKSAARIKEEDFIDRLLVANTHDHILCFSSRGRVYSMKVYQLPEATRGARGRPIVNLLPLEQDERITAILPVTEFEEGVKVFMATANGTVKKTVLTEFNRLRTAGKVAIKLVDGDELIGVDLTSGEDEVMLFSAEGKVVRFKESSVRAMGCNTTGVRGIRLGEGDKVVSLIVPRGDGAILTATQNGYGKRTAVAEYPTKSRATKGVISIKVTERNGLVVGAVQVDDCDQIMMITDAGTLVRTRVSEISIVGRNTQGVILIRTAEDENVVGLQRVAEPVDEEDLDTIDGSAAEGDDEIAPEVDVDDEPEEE

SMILES | MIC [1, 6] | MIC [2] | MIC [3] | IC50 [4] | IC50 [5] | pIC50 [4] | pIC50 [5] | MIC ([1]; Staphylococcus aureus, ATCC13709, read-out: S. aureus ATCC13709 MIC)
COc1ccc2nccc(-n3cc4c(n3)CCN(CC(=O)c3ccc5c(c3)NC(=O)CO5)C4)c2c1 [Example 64, 6-{2-[2-(6-Methoxy-quinolin-4-yl)-2,4,6,7-tetrahydro-pyrazolo[4,3-c]pyridin-5-yl]-acetyl}-4H-benzo[1,4]oxazin-3-one] | 4 µg/mL (≈ 8.52 µM) | 64 µg/mL (≈ 136 µM) | 128 µg/mL (≈ 273 µM) | 532 nM | > 8520 nM |  |  | 
COc1ccc2nccc(-n3cc4c(n3)CCC(NCc3ccc5c(c3)OCCO5)C4)c2n1 (stereo not shown) [Example 42, (2,3-Dihydro-benzo[1,4]dioxin-6-ylmethyl)-[2-(6-methoxy-[1,5]naphthyridin-4-yl)-4,5,6,7-tetrahydro-2H-indazol-5-yl]-amine] | 0.03 µg/mL (≈ 0.0676 µM) | 32 µg/mL (≈ 72.2 µM) | 0.5 µg/mL (≈ 1.13 µM) | 564 nM | 2250 nM |  |  | 
O=C1CSc2ccc(C(=O)NC3CCc4nn(-c5cccc6ccccc56)cc4C3)cc2N1 (stereo not shown) [Example 34, 3-Oxo-3,4-dihydro-2H-benzo[1,4]thiazine-6-carboxylic acid (2-naphthalen-1-yl-4,5,6,7-tetrahydro-2H-indazol-5-yl)-amide] | 0.5 µg/mL (≈ 1.1 µM) | > 128 µg/mL | 8 µg/mL (≈ 17.6 µM) | 275 nM | 4400 nM |  |  | 
COc1ccc2nccc(-n3cc4c(n3)CCC(NCc3cc5c(cc3Cl)OCCO5)C4)c2c1 (stereo not shown) [Example 103, (7-Chloro-2,3-dihydro-benzo[1,4]dioxin-6-ylmethyl)-[2-(6-methoxy-quinolin-4-yl)-4,5,6,7-tetrahydro-2H-indazol-5-yl]-amine] | 0.5 µg/mL (≈ 1.05 µM) | 32 µg/mL (≈ 67.1 µM) | 4 µg/mL (≈ 8.39 µM) | 524 nM | 4190 nM |  |  | 
COc1ccc2nccc(-n3cc4c(n3)CCC(NC(=O)c3cc5c(cc3C(F)(F)F)SCC(=O)N5)C4)c2c1 (stereo not shown) [Example 115, 3-Oxo-7-trifluoromethyl-3,4-dihydro-2H-benzo[1,4]thiazine-6-carboxylic acid [2-(6-methoxy-quinolin-4-yl)-4,5,6,7-tetrahydro-2H-indazol-5-yl]-amide] | 0.125 µg/mL (≈ 0.226 µM) | 8 µg/mL (≈ 14.5 µM) | 8 µg/mL (≈ 14.5 µM) | 452 nM | 1810 nM |  |  | 
COc1ccc2nccc(-n3cc4c(n3)CCC(NCc3ccc5c(n3)NC(=O)CO5)C4)c2n1 (stereo not shown) [Example 44, 6-{[2-(6-Methoxy-[1,5]naphthyridin-4-yl)-4,5,6,7-tetrahydro-2H-indazol-5-ylamino]-methyl}-4H-pyrido[3,2-b][1,4]oxazin-3-one] | 0.5 µg/mL (≈ 1.09 µM) | 2 µg/mL (≈ 4.37 µM) | 2 µg/mL (≈ 4.37 µM) | 35 nM | < 273 nM |  |  | 
COc1ccc2nccc(-n3cc4c(n3)CCC(NCc3ccc5c(c3)OCO5)C4)c2n1 (stereo not shown) [Example 37, Benzo[1,3]dioxol-5-ylmethyl-[2-(6-methoxy-[1,5]naphthyridin-4-yl)-4,5,6,7-tetrahydro-2H-indazol-5-yl]-amine] | 0.5 µg/mL (≈ 1.16 µM) | 32 µg/mL (≈ 74.5 µM) | 2 µg/mL (≈ 4.66 µM) | 582 nM | 582 nM |  |  | 
COc1ccc2nccc(-n3cc4c(n3)CCC(NC(=O)c3cc5ccccc5s3)C4)c2c1 (stereo not shown) [Example 23, Benzo[b]thiophene-2-carboxylic acid [2-(6-methoxy-quinolin-4-yl)-4,5,6,7-tetrahydro-2H-indazol-5-yl]-amide] | < 0.125 µg/mL | > 128 µg/mL | 2 µg/mL (≈ 4.4 µM) | > 2200 nM |  |  |  | 
COc1ccc2nccc(-n3cc4c(n3)CCC(NCc3cc5c(cc3F)SCC(=O)N5)C4)c2c1 (stereo not shown) [Example 53, 7-Fluoro-6-{[2-(6-methoxy-quinolin-4-yl)-4,5,6,7-tetrahydro-2H-indazol-5-ylamino]-methyl}-4H-benzo[1,4]thiazin-3-one] | 0.25 µg/mL (≈ 0.511 µM) | 4 µg/mL (≈ 8.17 µM) | 2 µg/mL (≈ 4.09 µM) | 32.7 nM | 1020 nM |  |  | 
COc1ccc2nccc(-n3cc4c(n3)CCC(NC(=O)c3cc5c(cc3Br)SCC(=O)N5)C4)c2n1 (stereo not shown) [Example 113, 7-Bromo-3-oxo-3,4-dihydro-2H-benzo[1,4]thiazine-6-carboxylic acid [2-(6-methoxy-[1,5]naphthyridin-4-yl)-4,5,6,7-tetrahydro-2H-indazol-5-yl]-amide] | 0.125 µg/mL (≈ 0.221 µM) | 2 µg/mL (≈ 3.54 µM) | 2 µg/mL (≈ 3.54 µM) | 442 nM | 442 nM |  |  | 
COc1ccc2nccc(-n3cc4c(n3)CCC(NCc3cc5c(cc3F)SCC(=O)N5)C4)c2n1 (stereo not shown) [Example 40, 7-Fluoro-6-{[2-(6-methoxy-[1,5]naphthyridin-4-yl)-4,5,6,7-tetrahydro-2H-indazol-5-ylamino]-methyl}-4H-benzo[1,4]thiazin-3-one] | 0.25 µg/mL (≈ 0.51 µM) | 4 µg/mL (≈ 8.15 µM) | 4 µg/mL (≈ 8.15 µM) | 122 nM | 4080 nM |  |  | 
COc1ccc2nccc(-n3cc4c(n3)CCC(NCc3ccc5c(n3)NC(=O)CO5)C4)c2c1 (stereo not shown) [Example 54, 6-{[2-(6-Methoxy-quinolin-4-yl)-4,5,6,7-tetrahydro-2H-indazol-5-ylamino]-methyl}-4H-pyrido[3,2-b][1,4]oxazin-3-one] | 1 µg/mL (≈ 2.19 µM) | 2 µg/mL (≈ 4.38 µM) | 2 µg/mL (≈ 4.38 µM) | 35 nM | 131 nM |  |  | 
COc1ccc2nccc(-n3cc4c(n3)CCC(NCC(=O)Nc3cc(F)cc(F)c3)C4)c2n1 (stereo not shown) [Example 58, N-(3,5-Difluoro-phenyl)-2-[2-(6-methoxy-[1,5]naphthyridin-4-yl)-4,5,6,7-tetrahydro-2H-indazol-5-ylamino]-acetamide] | 0.25 µg/mL (≈ 0.538 µM) | 16 µg/mL (≈ 34.4 µM) | 4 µg/mL (≈ 8.61 µM) | 34.4 nM | 2150 nM |  |  | 
COc1ccc2nccc(-n3cc4c(n3)CCC(NCc3ccc5c(c3)NCCS5)C4)c2c1 (stereo not shown) [Example 102] | 0.5 µg/mL (≈ 1.09 µM) | 8 µg/mL (≈ 17.5 µM) | 0.5 µg/mL (≈ 1.09 µM) | 137 nM | 1090 nM |  |  | 
COc1ccc2nccc(-n3cc4c(n3)CCC(NCCOc3cc(F)cc(F)c3)C4)c2c1 (stereo not shown) [Example 121] | 1 µg/mL (≈ 2.22 µM) | 8 µg/mL (≈ 17.8 µM) | 2 µg/mL (≈ 4.44 µM) |  |  | 6.56 | 5.95 | 
COc1ccc2nccc(-n3cc4c(n3)CCC(NC(=O)c3cc5c(cc3Br)SCC(=O)N5)C4)c2c1 (stereo not shown) [Example 114, 7-Bromo-3-oxo-3,4-dihydro-2H-benzo[1,4]thiazine-6-carboxylic acid [2-(6-methoxy-quinolin-4-yl)-4,5,6,7-tetrahydro-2H-indazol-5-yl]-amide] |  | 2 µg/mL (≈ 3.54 µM) | 2 µg/mL (≈ 3.54 µM) | 221 nM | 886 nM |  |  | 0.125 µg/mL (≈ 0.221 µM)
O=C1CSc2cc(F)c(C(=O)NC3CCc4nn(-c5cccc6cccnc56)cc4C3)cc2N1 (stereo not shown) [Example 32, 7-Fluoro-3-oxo-3,4-dihydro-2H-benzo[1,4]thiazine-6-carboxylic acid (2-quinolin-8-yl-4,5,6,7-tetrahydro-2H-indazol-5-yl)-amide] | 0.25 µg/mL (≈ 0.528 µM) | 16 µg/mL (≈ 33.8 µM) | 4 µg/mL (≈ 8.45 µM) | 264 nM |  |  |  | 
O=C1CSc2ccc(C(=O)NC3CCc4nn(-c5ccnc6cc(Cl)ccc56)cc4C3)cc2N1 (stereo not shown) [Example 81, 3-Oxo-3,4-dihydro-2H-benzo[1,4]thiazine-6-carboxylic acid [2-(7-chloro-quinolin-4-yl)-4,5,6,7-tetrahydro-2H-indazol-5-yl]-amide] | 2 µg/mL (≈ 4.08 µM) | > 128 µg/mL | > 128 µg/mL | > 1020 nM |  |  |  | 
COc1ccc2nccc(-n3cc4c(n3)CCC(NCC(=O)Nc3ccc5c(c3)NC(=O)CS5)C4)c2n1 (stereo not shown) [Example 83, 2-[2-(6-Methoxy-[1,5]naphthyridin-4-yl)-4,5,6,7-tetrahydro-2H-indazol-5-ylamino]-N-(3-oxo-3,4-dihydro-2H-benzo[1,4]thiazin-6-yl)-acetamide] | 2 µg/mL (≈ 3.88 µM) | > 128 µg/mL | 32 µg/mL (≈ 62.1 µM) | 485 nM | < 485 nM |  |  | 
COc1ccc2nccc(-n3cc4c(n3)CCC(NC(=O)c3ccc(C(C)=O)s3)C4)c2c1 (stereo not shown) [Example 73, 5-Acetyl-thiophene-2-carboxylic acid [2-(6-methoxy-quinolin-4-yl)-4,5,6,7-tetrahydro-2H-indazol-5-yl]-amide] | 4 µg/mL (≈ 8.96 µM) | > 128 µg/mL | 64 µg/mL (≈ 143 µM) |  | > 35800 nM |  |  | 
COc1ccc2nccc(-n3cc4c(n3)CCC(NC(=O)/C=C/c3ccc(F)cc3)C4)c2n1 (stereo not shown) [Example 13, 3-(4-Fluoro-phenyl)-N-[2-(6-methoxy-[1,5]naphthyridin-4-yl)-4,5,6,7-tetrahydro-2H-indazol-5-yl]-acrylamide] | 0.5 µg/mL (≈ 1.13 µM) | > 128 µg/mL | 8 µg/mL (≈ 18 µM) |  | > 36100 nM |  |  | 
